Source: PubChem BioAssay (NCI)
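Tested at 5 concentrations; 48 h exposure; 96-well plates; endpoints linearly interpolated, else capped at highest concentration. The concentration for 50% growth inhibition is given as GI50. TGI marks complete inhibition of growth.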

Tests used:
Assay in all cases: DTP human tumour cell line panel, 48 h
[1] = system: PC-3 prostate
[2] = system: 786-0 renal
[3] = system: A498 renal
[4] = system: LOX IMVI melanoma
[5] = system: MDA-MB-231 breast
[6] = system: NCI/ADR-RES ovarian
[7] = system: EKVX NSCLC
[8] = system: SNB-75 CNS
[9] = system: MOLT-4 leukemia
[10] = system: NCI-H522 lung
[11] = system: SNB-19 CNS
[12] = system: HT29 colon
[13] = system: SK-MEL-2 melanoma
[14] = system: ACHN renal
[15] = system: NCI-H460 lung
[16] = system: SN12C renal
[17] = system: HS 578T breast
[18] = system: SR leukemia
[19] = system: COLO 205 colon
[20] = system: CCRF-CEM leukemia
[21] = system: UACC-257 melanoma
[22] = system: TK-10 renal
[23] = system: DU-145 prostate
[24] = system: UO-31 renal
[25] = system: U251 CNS
[26] = system: RPMI-8226 leukemia
[27] = system: MDA-MB-435
[28] = system: SF-268 CNS
[29] = system: BT-549 breast
[30] = system: MCF7 breast
[31] = system: OVCAR-4 ovarian
[32] = system: HOP-62 NSCLC
[33] = system: UACC-62 melanoma
[34] = system: SF-295 CNS
[35] = system: T-47D breast
[36] = system: HL-60(TB) leukemia
[37] = system: HCT-116 colon
[38] = system: OVCAR-5 ovarian
[39] = system: NCI-H226 lung
[40] = system: NCI-H23 lung
[41] = system: M14 melanoma
[42] = system: CAKI-1 renal
[43] = system: A549 NSCLC
[44] = system: KM12 colon
[45] = system: IGROV1 ovarian
[46] = system: OVCAR-8 ovarian
[47] = system: MALME-3M melanoma
[48] = system: SK-OV-3 ovarian
[49] = system: HOP-92 NSCLC
[50] = system: HCT-15 colon
[51] = system: SW-620 colon
[52] = system: SF-539 CNS
[53] = system: HCC-2998 colon
[54] = system: K-562 leukemia
[55] = system: SK-MEL-5 melanoma
[56] = system: SK-MEL-28 melanoma
[57] = system: OVCAR-3 ovarian
[58] = system: MDA-N
[59] = system: RXF 393 renal

COc1ccc(C(=O)c2ccc(OC)c(OC)c2OC)cc1
GI50 [1]: 3.21 µM
TGI [1]: > 100 µM
GI50 [2]: 9.85 µM
TGI [2]: > 100 µM
GI50 [3]: 1080 nM
TGI [3]: 9.39 µM
GI50 [4]: 6.63 µM
TGI [4]: > 100 µM
GI50 [5]: 3.63 µM
TGI [5]: > 100 µM
GI50 [6]: 693 nM
TGI [6]: 7.8 µM
GI50 [7]: 4.77 µM
TGI [7]: > 100 µM
GI50 [8]: 1760 nM
TGI [8]: > 100 µM
GI50 [9]: 1110 nM
TGI [9]: > 100 µM
GI50 [10]: 1810 nM
TGI [10]: 6.03 µM
GI50 [11]: 4.87 µM
TGI [11]: > 100 µM
GI50 [12]: 465 nM
TGI [12]: 33.5 µM
GI50 [13]: 402 nM
TGI [13]: 3.33 µM
GI50 [14]: 6.56 µM
TGI [14]: > 100 µM
GI50 [15]: 1990 nM
TGI [15]: 11.6 µM
GI50 [16]: 8.33 µM
TGI [16]: > 100 µM
GI50 [17]: 915 nM
TGI [17]: 3.65 µM
GI50 [18]: 347 nM
TGI [18]: > 100 µM
GI50 [19]: 1140 nM
TGI [19]: 3.13 µM
GI50 [20]: 1460 nM
TGI [20]: > 100 µM
GI50 [21]: 3.73 µM
TGI [21]: > 100 µM
GI50 [22]: 2850 nM
TGI [22]: > 100 µM
GI50 [23]: 2140 nM
TGI [23]: 10.6 µM
GI50 [24]: 4.65 µM
TGI [24]: > 100 µM
GI50 [25]: 725 nM
TGI [25]: > 100 µM
GI50 [26]: 2590 nM
TGI [26]: > 100 µM
GI50 [27]: 200 nM
TGI [27]: 0.525 µM
GI50 [28]: 5.2 µM
TGI [28]: > 100 µM
GI50 [29]: 6.16 µM
TGI [29]: > 100 µM
GI50 [30]: 697 nM
TGI [30]: > 100 µM
GI50 [31]: 7.08 µM
TGI [31]: > 100 µM
GI50 [32]: 2390 nM
TGI [32]: > 100 µM
GI50 [33]: 1470 nM
TGI [33]: > 100 µM
GI50 [34]: 956 nM
TGI [34]: 5.07 µM
GI50 [35]: 5.37 µM
TGI [35]: > 100 µM
GI50 [36]: 464 nM
TGI [36]: > 100 µM
GI50 [37]: 2190 nM
TGI [37]: > 100 µM
GI50 [38]: 8.52 µM
TGI [38]: > 100 µM
GI50 [39]: 34.7 µM
TGI [39]: > 100 µM
GI50 [40]: 3.32 µM
TGI [40]: > 100 µM
GI50 [41]: 1320 nM
TGI [41]: 71.2 µM
GI50 [42]: 1210 nM
TGI [42]: > 100 µM
GI50 [43]: 2010 nM
TGI [43]: > 100 µM
GI50 [44]: 492 nM
TGI [44]: 25.2 µM
GI50 [45]: 1760 nM
TGI [45]: > 100 µM
GI50 [46]: 3 µM
TGI [46]: > 100 µM
GI50 [47]: 1770 nM
TGI [47]: > 100 µM
GI50 [48]: 2060 nM
TGI [48]: 13.1 µM
GI50 [49]: 5.4 µM
TGI [49]: > 100 µM
GI50 [50]: 596 nM
TGI [50]: > 100 µM
GI50 [51]: 377 nM
TGI [51]: > 100 µM
GI50 [52]: 1790 nM
TGI [52]: 8.2 µM
GI50 [53]: 2760 nM
TGI [53]: > 100 µM
GI50 [54]: 351 nM
TGI [54]: > 100 µM
GI50 [55]: 1680 nM
TGI [55]: 37.2 µM
GI50 [56]: 4.51 µM
TGI [56]: > 100 µM
GI50 [57]: 773 nM
TGI [57]: 2.86 µM

CC1(C)CC(=O)C2=C(C1)OC1=C(C(=O)CC(C)(C)C1)C2CC(c1ccccc1)c1ccc(O)c(O)c1O (stereo not given)
TGI [1]: > 10 µM
TGI [5]: > 10 µM
TGI [6]: > 10 µM
TGI [7]: > 10 µM
TGI [8]: > 10 µM
TGI [11]: > 10 µM
TGI [12]: > 10 µM
TGI [14]: > 10 µM
TGI [16]: > 10 µM
TGI [22]: > 10 µM
TGI [23]: > 10 µM
TGI [24]: > 10 µM
TGI [25]: > 10 µM
TGI [27]: > 10 µM
TGI [28]: > 10 µM
TGI [58]: > 10 µM
TGI [31]: > 10 µM
TGI [34]: > 10 µM
TGI [37]: > 10 µM
TGI [59]: > 10 µM
TGI [38]: > 10 µM
TGI [39]: > 10 µM
TGI [40]: > 10 µM
TGI [41]: > 10 µM
TGI [42]: > 10 µM
TGI [43]: > 10 µM
TGI [44]: > 10 µM
TGI [45]: > 10 µM
TGI [46]: > 10 µM
TGI [49]: > 10 µM
TGI [50]: > 10 µM
TGI [51]: > 10 µM
TGI [52]: > 10 µM
TGI [55]: > 10 µM
TGI [57]: > 10 µM

CCCc1cc(=O)oc2c3c(c4c(c12)OC(C)(C)C=C4)O[C@@H](C)[C@H](C)C3=O
TGI [1]: 35.4 µM
TGI [2]: 38.8 µM
TGI [3]: 29.9 µM
TGI [4]: 37.3 µM
TGI [5]: 33.2 µM
TGI [6]: 35.4 µM
TGI [7]: 24.6 µM
TGI [8]: 30.7 µM
TGI [9]: 26.8 µM
TGI [10]: 29.8 µM
TGI [11]: 37.5 µM
TGI [12]: 23.2 µM
TGI [14]: 24.9 µM
TGI [15]: 44.4 µM
TGI [16]: 41.4 µM
TGI [17]: 38.7 µM
TGI [18]: 41.6 µM
TGI [19]: 49.5 µM
TGI [20]: 48.3 µM
TGI [21]: 37.3 µM
TGI [22]: 44.3 µM
TGI [23]: 61.1 µM
TGI [24]: 31.4 µM
TGI [25]: 97.6 µM
TGI [26]: 31.2 µM
TGI [27]: 58.8 µM
TGI [28]: 45.2 µM
TGI [58]: 36.4 µM
TGI [29]: 29.6 µM
TGI [30]: 46.3 µM
TGI [32]: 35.5 µM
TGI [34]: 31.7 µM
TGI [36]: 33.4 µM
TGI [37]: 24.2 µM
TGI [38]: 33.2 µM
TGI [39]: 41.6 µM
TGI [40]: 38.4 µM
TGI [42]: 73.9 µM
TGI [43]: 24.5 µM
TGI [44]: 27.9 µM
TGI [45]: 28.4 µM
TGI [46]: 45.4 µM
TGI [47]: 35.6 µM
TGI [50]: 46.1 µM
TGI [51]: 32.2 µM
TGI [52]: 37.4 µM
TGI [53]: 34.5 µM
TGI [54]: 27.7 µM
TGI [55]: 32.3 µM
TGI [56]: 25.7 µM
TGI [57]: 49.1 µM
